Here are results for 16 compounds from patent US8546608B2, “Proteasome inhibitors and methods of using the same” (Cephalon, Inc., priority 2003, dated 2013).

The target in assay [1] is T1, proteasome in Molt-4 cells (human leukemia) (Homo sapiens, UniProt P20618+P28074).
T1 sequence (P28074 60-263): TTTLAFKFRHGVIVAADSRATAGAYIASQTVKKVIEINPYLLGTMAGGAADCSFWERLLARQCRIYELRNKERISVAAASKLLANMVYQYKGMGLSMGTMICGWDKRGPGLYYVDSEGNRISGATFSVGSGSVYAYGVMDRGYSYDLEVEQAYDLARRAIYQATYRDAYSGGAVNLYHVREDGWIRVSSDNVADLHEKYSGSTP
T1 sequence (P20618 29-241): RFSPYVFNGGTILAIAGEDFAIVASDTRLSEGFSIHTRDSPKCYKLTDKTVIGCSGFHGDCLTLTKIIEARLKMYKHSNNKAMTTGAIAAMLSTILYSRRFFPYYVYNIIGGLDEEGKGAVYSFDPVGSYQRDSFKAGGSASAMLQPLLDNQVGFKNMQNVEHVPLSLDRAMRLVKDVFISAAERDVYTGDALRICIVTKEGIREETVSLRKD
It is filed as cell-based. As to conditions: assay of Example E, inhibition of MOLT4; read-out: MOLT4 (EC50). On the procedure: Cellular Assay for Chymotrypsin-like activity of Proteasome in Molt-4 Cell Line
The chymotrypsin-like activity of proteasome in Molt-4 cells (human leukemia) was assayed according to the following procedure. A brief description of the method was published previously (Harding et al., J. Immunol., 1995, 155, 1767).
Molt-4 cells were washed and resuspended in HEPES-buffered Saline (5.4 mM KCl, 120 mM NaCl, 25 mM Glucose, 1.5 mM MgSO4, 1 mM Na pyruvate, 20 mM Hepes) and plated in 96-well microtiter white plates to a final concentration of 6×10^6 cells/mL. Then various 5× proteasome inhibitor concentrations (or diluted DMSO for controls), prepared from 250×DMSO solutions by diluting 50-fold using HEPES-buffered saline, were added to the plate to a final 1× concentration. After 15 minutes incubation at 37° C., a fluorimetric cell permeable substrate (MeOSuc-FLF-AFC) (methoxysuccinyl-Phe-Leu-Phe-7-amido-4-trifluoromethylcoumarin) purchased from Enzyme Systems Products, catalogue number AFC-88, was added to each well at a final concentration of 25 μM from a stock solution of 20 mM in DMSO. Reaction volumes were 100 μl per well.
The concentration of free AFC was monitored every 1.5 min for 30 min ([…]) on a Polastar Optima, BMG Labtechnologies microplate reader, using an excitation wavelength of 390 nm and emission wavelength of 520 nm. Proteasome activity was determined under conditions in which substrate hydrolysis increased linearly with time and the change in fluorescent signal was proportional to the concentration of free AFC.
Determination of EC50 Values for Proteasome Inhibitors in MOLT-4 Cell Line
Inhibition of chymotrypsin-like activity of proteasome in Molt-4 cells was determined by incubating cells with various concentrations of putative inhibitors for 15 minutes at 37° C. prior to the addition of substrate. Each experimental condition was evaluated in triplicate, and replicate experiments were performed for the inhibitors described herein.

For assay [2], the target named is T2, 20S Human Erythrocyte Proteasome (HEP) (Homo sapiens, UniProt P20618+P28074).
T2 construct: 20S Human Erythrocyte Proteasome (HEP), purchased from Immatics Biotechnologies Inc; purchased Immatics Biotechnologies Inc., Tübingen, Germany; host or cells: human erythrocytes (natural source)
Nature of the assay: Chymotrypsin-like activity of 20S Human Erythrocyte Proteasome (HEP), IC50 determination. It is filed as biochemical. As to conditions: assay of Example C, inhibition of HEP. The method in brief:
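20S proteasome at 0.2 μg/mL (about 0.6 nM catalytic sites) in 20 mM Tris with 0.04% SDS, preincubated 15 min at 37° C with inhibitor before Suc-LLVY-AMC (100 μM final). AMC fluorescence read in the linear range; triplicates, IC50 from concentration series.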

What is called EC50 is the concentration giving half of the maximal effect. By IC50 is commonly meant the concentration that inhibits the measured activity by half. Read a low IC50 as greater potency in that assay. Take `COC(=O)CCCC(=O)N[C@@H](CCCNC(=N)N[N+](=O)[O-])C(=O)N[C@@H](CC(C)C)B1O[C@@H]2C[C@@H]3C[C@@H](C3(C)C)[C@]2(C)O1` [D.2.1, 4-(methoxycarbonyl)butanamide,N-[(1S)-1-[[[(1R)-1-[(3aS,4S,6S,7aR)-hexahydro-3a,5,5-trimethyl-4,6-methano-1,3,2-benzodioxaborol-2-yl]-3-methylbutyl]amino]carbonyl]-4-[[imino(nitroamino)methyl]amino]butyl]]: the EC50 in assay [1] lay within 200 to 2000 nM. This compound also showed an IC50 in assay [2] below 10 nM.

Regarding `CCCCN1CCC(CCCC(=O)N[C@@H](CCCNC(=N)N[N+](=O)[O-])C(=O)N[C@@H](CC(C)C)B2O[C@@H]3C[C@@H]4C[C@@H](C4(C)C)[C@]3(C)O2)CC1` [D.2.2, 4-(1-Butyl-piperidin-4-yl)-butanamide,N-[(1S)-1-[[[(1R)-1-[(3aS,4S,6S,7aR)-hexahydro-3a,5,5-trimethyl-4,6-methano-1,3,2-benzodioxaborol-2-yl]-3-methylbutyl]amino]carbonyl]-4-[[imino(nitroamino)methyl]amino]butyl]], in assay [1], the EC50 was above 10000 nM. This compound gave an IC50 in assay [2] below 10 nM.

For the compound `CCCCOCC(=O)N[C@@H](CCCNC(=N)N[N+](=O)[O-])C(=O)N[C@@H](CC(C)C)B1O[C@@H]2C[C@@H]3C[C@@H](C3(C)C)[C@]2(C)O1` [D.2.3, 2-Butoxyacetamide,N-[(1S)-1-[[[(1R)-1-[(3aS,4S,6S,7aR)-hexahydro-3a,5,5-trimethyl-4,6-methano-1,3,2-benzodioxaborol-2-yl]-3-methylbutyl]amino]carbonyl]-4-[[imino(nitroamino)methyl]amino]butyl]], the concentration for a half-maximal effect (EC50) in assay [1] was below 200 nM. Moreover, the IC50 in assay [2] was below 10 nM.

Turning to `CC(C)C[C@H](NC(=O)[C@H](CCCNC(=N)N[N+](=O)[O-])NC(=O)CCCCCCCCCCCNC(=O)OC(C)(C)C)B1O[C@@H]2C[C@@H]3C[C@@H](C3(C)C)[C@]2(C)O1` [D.2.4, 12-[(1,1-dimethylethoxy)carbonylamino] dodecanamide,N-[(1S)-1-[[[(1R)-1-[(3aS,4S,6S,7aR)-hexahydro-3a,5,5-trimethyl-4,6-methano-1,3,2-benzodioxaborol-2-yl]-3-methylbutyl]amino]carbonyl]-4-[[imino(nitroamino)methyl]amino]butyl]-], the EC50 in assay [1] is below 200 nM. This compound yielded an IC50 in assay [2] below 10 nM.

In the case of `COC(=O)CCCCCCC(=O)N[C@@H](CCCNC(=N)N[N+](=O)[O-])C(=O)N[C@@H](CC(C)C)B1O[C@@H]2C[C@@H]3C[C@@H](C3(C)C)[C@]2(C)O1` [D.2.5], the EC50 in assay [1] is 200 to 2000 nM. Further, the IC50 in assay [2] was below 10 nM.

As for `COCCOCC(=O)NCC(=O)N[C@@H](CCCNC(=N)N[N+](=O)[O-])C(=O)N[C@@H](CC(C)C)B1O[C@@H]2C[C@@H]3C[C@@H](C3(C)C)[C@]2(C)O1` [D.2.6], the EC50 in assay [1] fell in the range of 2000 to 10000 nM. Besides, the IC50 in assay [2] was below 100 nM.

Consider `CCCCCCCCCC(=O)NCC(=O)N[C@@H](CC(C)C)B1O[C@@H]2C[C@@H]3C[C@@H](C3(C)C)[C@]2(C)O1` [D.2.7, Decanamide,N-[1-[[[(1R)-1-[(3aS,4S,6S,7aR)-hexahydro-3a,5,5-trimethyl-4,6-methano-1,3,2-benzodioxaborol-2-yl]-3-methylbutyl]amino]carbonyl]methyl]], for which, in assay [1], the 50% effective concentration (EC50) was below 200 nM. The compound also returned an IC50 in assay [2] below 10 nM.

On to `COCCOCCOCC(=O)NCC(=O)N[C@@H](CC(C)C)B1O[C@@H]2C[C@@H]3C[C@@H](C3(C)C)[C@]2(C)O1` [D.2.8, 2-[2-(2-methoxyethoxy)ethoxy]acetamide,N-[1-[[[(1R)-1-[(3aS,4S,6S,7aR)-hexahydro-3a,5,5-trimethyl-4,6-methano-1,3,2-benzodioxaborol-2-yl]-3-methylbutyl]amino]carbonyl]methyl]], for which, in assay [1], the 50% effective concentration (EC50) was below 200 nM. In assay [2], this compound showed an IC50 below 100 nM.

For `CCCCCCCCCC(=O)N[C@@H](CCCNC(=N)N[N+](=O)[O-])C(=O)N[C@@H](CC(C)C)B1O[C@@H]2C[C@@H]3C[C@@H](C3(C)C)[C@]2(C)O1` [D.3.1, Decanamide,N-[(1S)-1-[[[(1R)-1-[(3aS,4S,6S,7aR)-hexahydro-3a,5,5-trimethyl-4,6-methano-1,3,2-benzodioxaborol-2-yl]-3-methylbutyl]amino]carbonyl]-4-[[imino(nitroamino)methyl]amino]butyl]], the EC50 in assay [1] was below 200 nM. In assay [2], this compound registered an IC50 below 10 nM.

Consider `CC(C)C[C@H](NC(=O)[C@H](CCCNC(=N)N[N+](=O)[O-])NC(=O)c1cccc2ccccc12)B1O[C@@H]2C[C@@H]3C[C@@H](C3(C)C)[C@]2(C)O1` [D.3.2, Naphthalen-1-carboxamide,N-[(1S)-1-[[[(1R)-1-[(3aS,4S,6S,7aR)-hexahydro-3a,5,5-trimethyl-4,6-methano-1,3,2-benzodioxaborol-2-yl]-3-methylbutyl]amino]carbonyl]-4-[[imino(nitroamino)methyl]amino]butyl]], for which the concentration for a half-maximal effect (EC50) in assay [1] was below 200 nM. In assay [2], this compound registered an IC50 below 10 nM.

`CC(C)C[C@H](NC(=O)[C@H](CCCNC(=N)N[N+](=O)[O-])NC(=O)Cc1ccccc1)B1O[C@@H]2C[C@@H]3C[C@@H](C3(C)C)[C@]2(C)O1` [D.3.3]: the EC50 in assay [1] was in the range of 200 to 2000 nM. The compound also returned an IC50 in assay [2] below 10 nM.

For the compound `CCCCCCCCCCCC(=O)N[C@@H](CCCNC(=N)N[N+](=O)[O-])C(=O)N[C@@H](CC(C)C)B1O[C@@H]2C[C@@H]3C[C@@H](C3(C)C)[C@]2(C)O1` [D.3.7, Dodecanamide,N-[(1S)-1-[[[(1R)-1-[(3aS,4S,6S,7aR)-hexahydro-3a,5,5-trimethyl-4,6-methano-1,3,2-benzodioxaborol-2-yl]-3-methylbutyl]amino]carbonyl]-4-[[imino(nitroamino)methyl]amino]butyl]], the EC50 in assay [1] is below 200 nM. The compound also had an IC50 in assay [2] below 10 nM.

Regarding `CCCCCCCC(=O)N[C@@H](CCCNC(=N)N[N+](=O)[O-])C(=O)N[C@@H](CC(C)C)B1O[C@@H]2C[C@@H]3C[C@@H](C3(C)C)[C@]2(C)O1` [D.3.8, Octanamide,N-[(1S)-1-[[[(1R)-1-[(3aS,4S,6S,7aR)-hexahydro-3a,5,5-trimethyl-4,6-methano-1,3,2-benzodioxaborol-2-yl]-3-methylbutyl]amino]carbonyl]-4-[[imino(nitroamino)methyl]amino]butyl]], the 50% effective concentration (EC50) in assay [1] was below 200 nM. Also, in assay [2], the IC50 was below 10 nM.

Take `CCCCC[C@H]1CC[C@H](C(=O)N[C@@H](CCCNC(=N)N[N+](=O)[O-])C(=O)N[C@@H](CC(C)C)B2O[C@@H]3C[C@@H]4C[C@@H](C4(C)C)[C@]3(C)O2)CC1` [D.3.11, trans-4-Pentylcyclohexanecarboxamide, N-[(1S)-1-[[[(1R)-1-[(3aS,4S,6S,7aR)-hexahydro-3a,5,5-trimethyl-4,6-methano-1,3,2-benzodioxaborol-2-yl]-3-methylbutyl]amino]carbonyl]-4-[[imino(nitroamino)methyl]amino]butyl]]: the EC50 in assay [1] is below 200 nM. This compound also came in with an IC50 in assay [2] below 10 nM.

In the case of `CC(C)C[C@H](NC(=O)[C@H](CCCNC(=N)N[N+](=O)[O-])NC(=O)CCCc1ccccc1)B1O[C@@H]2C[C@@H]3C[C@@H](C3(C)C)[C@]2(C)O1` [D.3.12, 4-Phenylbutanamide,N-[(1S)-1-[[[(1R)-1-[(3aS,4S,6S,7aR)-hexahydro-3a,5,5-trimethyl-4,6-methano-1,3,2-benzodioxaborol-2-yl]-3-methylbutyl]amino]carbonyl]-4-[[imino(nitroamino)methyl]amino]butyl]], in assay [1], the EC50 is below 200 nM. Also, in assay [2], the IC50 is below 10 nM.

For `CCCCCCCCC(=O)N[C@@H](CCCNC(=N)N[N+](=O)[O-])C(=O)N[C@@H](CC(C)C)B1O[C@@H]2C[C@@H]3C[C@@H](C3(C)C)[C@]2(C)O1` [D.3.15, Nonanamide,N-[(1S)-1-[[[(1R)-1-[(3aS,4S,6S,7aR)-hexahydro-3a,5,5-trimethyl-4,6-methano-1,3,2-benzodioxaborol-2-yl]-3-methylbutyl]amino]carbonyl]-4-[[imino(nitroamino)methyl]amino]butyl]], the EC50 in assay [1] was below 200 nM. This compound came in with an IC50 in assay [2] below 10 nM.
